Results published in patent publication US20260345596A1, “TREATMENT OF LOCALLY ADVANCED OR METASTATIC UROTHELIAL CARCINOMA WITH ERDAFINITIB” (priority 2023, published 2026).
“Also recorded” adds a separate entry of the source.

How the values were obtained:
[1] = Solubility
[2] = system: cell lines expressing FGFR genetic alterations; experiment: Cell viability of cell lines expressing FGFR genetic alterations; format: cell-based; settings: cell lines with FGFR genetic alterations
[3] = system: FGFR phosphorylation and signaling; experiment: FGFR phosphorylation and signaling in cell lines expressing FGFR genetic alterations; format: cell-based; settings: cell lines with FGFR genetic alterations
[4] = system: QTc interval; experiment: Cardiac electrophysiology: QTc interval in dose escalation and dose expansion study (187 patients); settings: large effect = ≥20 ms
[5] = system: locally advanced or metastatic urothelial carcinoma with FGFR alterations; experiment: Study BLC3001 (NCT03390504, THOR) Cohort 1: efficacy of erdafitinib versus chemotherapy; format: in vivo, human
Experimental: Subjects are assigned to Cohort 1 or Cohort 2 based upon prior treatment with an anti-PD-(L)1 agent. […] Cohort 1 and Cohort 2 are assessed independently.
Each potential subject must satisfy all of the following criteria to be enrolled in the study: • 1. ≥18 years of age (or the legal age of consent in the jurisdiction in which the study is taking place) • 2. […] Minor components (<50% overall) of variant histology such as glandular or squamous differentiation, or evolution to more aggressive phenotypes such as sarcomatoid or micropapillary change are acceptable • 3. Metastatic or surgically unresectable urothelial cancer • 4. Documented progression of disease, defined as any progression that requires a change in treatment, prior to randomization • 5. Prior treatment with an anti-PD-(L)1 agent as monotherapy or as combination therapy; no more than 2 prior lines of systemic treatment. […] These subjects will however still be eligible only for Cohort 1.
Each dose should be taken at approximately the same time each day, with or without food. The study drug is to be taken with approximately 240 mL (8 ounces) of water. The tablets should be swallowed intact and subjects should not attempt to dissolve them in water, tablets must not be broken or chewed. Subjects should avoid consuming grapefruit or Seville oranges due to CYP450 3A4/5 inhibition.
No concomitant treatment is required for these subjects.
Subjects randomized to chemotherapy in Arm 1B (see FIG. 1) receive vinflunine 320 mg/m2 as a 20-minute intravenous infusion once every 3 weeks or docetaxel 75 mg/m2 as a 1-hour intravenous infusion every 3 weeks. Treatment with either agent will be administered until disease progression, intolerable toxicity, withdrawal of consent or decision by the investigator to discontinue treatment.
The primary endpoint is OS. The primary efficacy analysis is based on the Intent-to-Treat (ITT) population that includes all randomized subjects in each cohort. The Kaplan-Meier method is used to estimate the distribution of OS for each treatment group within each cohort. The stratified log-rank test is used to compare survival curves of OS between the 2 treatment arms. The stratification factors to be used in the analysis are as follows: region (North America vs EU vs rest of world), ECOG performance status (0 or 1 vs 2), and disease distribution (presence vs absence of visceral metastases: lung, liver, or bone). Pre-specified strata combining will be implemented when some strata have too few OS events.
The secondary efficacy endpoints are PFS, ORR (achievement of objective response), and Safety. Secondary end points also included DOR, change from baseline in patient reported outcomes (Functional Assessment of Cancer Therapy—Bladder Cancer, Patient-Global Impression of Severity, and the European Quality of Life—5 Dimensions—5 Levels). PFS is analyzed the same as OS. Kaplan-Meier method is used to estimate the distribution of DOR. ORR is analyzed by Cochran-Mantel-Haenszel chi-square test for randomized subjects with measurable disease at baseline. The analyses of the secondary efficacy endpoints include all randomized subjects (ITT subjects) unless otherwise specified. The family-wise type 1 error is strongly controlled at 5% (2-sided) for the secondary efficacy endpoints.
Ophthalmologic examination at baseline included an Amsler grid test, optical coherence tomography scan (OCT), and ophthalmologic evaluation. An Amsler grid test was conducted at every cycle. Repeat OCT was done as clinically indicated based on the Amsler grid test or clinical assessment.
O'Brien-Fleming boundaries were applied, implemented by the Lan-DeMets spending function for a total Type I error of 0.05. […] Stopping for futility was possible if the hazard ratio at the interim analysis exceeded 1.0, considering the totality of the data.
Descriptive subgroup analyses were conducted, but with no adjustment for multiplicity.

[6] = system: rats; experiment: 3-month repeat-dose toxicity study, female reproductive organs; settings: exposure less than human AUC at maximum recommended dose
[7] = clinical; settings: human, in vivo, po
[8] = system: bacteria; experiment: Bacterial reverse mutation (Ames) assay
[9] = Excretion after a single oral dose of radiolabeled erdafitinib; settings: for dose excreted: human, in vivo, po

COc1cc(OC)cc(N(CCNC(C)C)c2ccc3ncc(-c4cnn(C)c4)nc3c2)c1 [Erdafitinib, N-(3,5-dimethoxyphenyl)-N′-(1-methylethyl)-N-[3-(1-methyl-1H-pyrazol-4-yl)quinoxalin-6-yl]ethane-1,2-diamine]
Solubility in organic solvents ([1]; organic solvents): practically insoluble, or insoluble to freely soluble in organic solvents
Solubility across the pH range of 1 to 7.4 ([1]; pH 1 to 7.4): adequate solubility across the pH range of 1 to 7.4
Solubility in aqueous media ([1]; wide range of pH values): slightly soluble to practically insoluble, or insoluble in aqueous media over a wide range of pH values
Cell viability [2]: decreased cell viability in cell lines expressing FGFR genetic alterations, including point mutations, amplifications, and fusions
FGFR phosphorylation and signaling [3]: inhibited FGFR phosphorylation and signaling
Effect on QTc interval [4]: no large effect (i.e., ≥20 ms) on the QTc interval
Disease control rate (CR + PR + SD) ([5]; ITT): 112 (82.4%) n (%)
Progression-free survival (PFS): number of events (%) ([5]; ITT): 101 (74.3%) number (%)
Overall Survival (OS): number of events (%) ([5]; ITT, 8 mg oral once daily, up-titration to 9 mg, chemotherapy docetaxel or vinflunine): 77 (56.6%) number (%)
Objective response rate, ORR (CR + PR) ([5]; ITT, RECIST v1.1, investigator): 62 (45.6%) n (%)
OS events (deaths) ([5]; ITT, at data cut, ~75% information fraction, count): 77
PFS events ([5]; ITT, at data cut, count): 101
Not evaluable (NE) ([5]; ITT, best overall response): 10 (7.4%) n (%)
Progressive disease (PD) ([5]; ITT, best overall response): 14 (10.3%) n (%)
Complete response, CR (%) ([5]; ITT, best overall response, RECIST v1.1, investigator): 9 (6.6%) n (%)
Complete response (CR) ([5]; ITT, investigator): 6.6%
Partial response (PR) ([5]; ITT, investigator): 39.0%
Patients alive at 6 months ([5]; estimated, (95% CI)): 85% (95% CI, 77 to 90)
Patients alive at 12 months ([5]; estimated, (95% CI)): 51% (95% CI, 41 to 60)
Median overall survival (years) ([5]; mUC and FGFR alt after prior anti-PD-(L)1): about 1 year
Improvement of disease control rate ([5]; versus chemotherapy): about 39%
Objective response outcome in words ([5]; versus chemotherapy): approximately a four-fold higher probability of achieving an objective response; also recorded: The superiority of Erdafitinib relative to chemotherapy, in terms of ORR, was established; also recorded: significantly greater for Erdafitinib, with similar DOR; also recorded: generally consistent in the subgroups evaluated
Overall survival outcome in words ([5]; versus chemotherapy): The superiority of Erdafitinib relative to chemotherapy, in terms of OS, was established; also recorded: generally consistent across clinically meaningful subgroups including age group, FGFR alteration type, baseline ECOG PS, presence/absence of visceral metastases and PD-L1 status; also recorded: significantly prolonged or extended OS compared to chemotherapy; also recorded: consistent across clinically relevant subgroups; also recorded: significantly longer with erdafitinib versus chemotherapy; also recorded: significantly prolonged median overall survival compared with chemotherapy
Progression-free survival outcome in words ([5]; versus chemotherapy): The superiority of Erdafitinib relative to chemotherapy, in terms of PFS, was established; also recorded: significantly prolonged PFS; also recorded: generally consistent in the subgroups evaluated
Confirmed complete response (CR) ([5]; ≥2 consecutive assessments): 5.1%
Confirmed partial response (PR) ([5]; ≥2 consecutive assessments): 30.1%
Effects on female reproductive organs [6]: showed effects on female reproductive organs (necrosis of the ovarian corpora lutea)
CL/F [7]: 6.03 mL/min
Vd/F [7]: 29 L
Mutagenicity (Ames) [8]: not mutagenic
Dose recovered in feces [9]: approximately 69%
Dose recovered in urine [9]: 19%
dose excreted ([9]; Dose recovered in feces as unchanged): 19%
dose excreted ([9]; Dose recovered in urine as unchanged): 13%
